Measured values taken from patent US20180339016A1 (priority 2015, published 2018).
Values joined by “and” are separate entries in the source; they are usually repeats but may differ in a detail not shown here. Equal entries are not always repeated. Where two headings read alike, the source gives them in different places.

How the values were obtained:
[1] = system: Escherichia coli (ATCC 25922); conditions: peptide alone; peptide concentration required to inhibit growth by 20% (so in the source)
Procedure: (§1) The N-terminus of the peptides were acetylated and the C-terminus was amidated. The kinked structure can rapidly reduce the alpha-helical content, thereby greatly reducing the toxicity of the peptide against host cells. In addition, because of the potential to show specificity for the Gram-negative bacterial membrane, Pro-mutants were prepared by site-directed mutagenesis. Using the prepared peptides, their MIC for the Gram-negative bacterium E. coli and the Gram-positive bacterium S. aureus and their hemolytic activity for host cells were examined (Table 1).
(§2) To measure the synergy between the membrane-activating peptides and the repositioning drug, a 10× compound was prepared, and then serially diluted ⅔-fold with distilled water. An MH broth (900 μl) was added to and mixed with the 10× compound (100 μl), and then 200 μL of the mixture was taken and added to a 96-well plate. E. coli cultured for one day was adjusted to 0.5 MCF using MCFarland, and diluted 10-fold, and then 10 μl of the dilution was added to each well of the plate (5×10^5 CFU/mL). After addition of the bacterial cells, plate was incubated at 37° C. for 18 hours, and then the OD value at UV-Vis (600 nm) was measured. Cell viability (%)=(OD600 of sample−OD600 of negative control)/(OD600 of positive control−OD600 of negative control)×100.

[2] = system: Staphylococcus aureus (ATCC 29213); experiment: MIC of peptide against S. aureus; type: cell-based; conditions: peptide alone
Procedure: as §1

[3] = system: E. coli NDm-1; experiment: Confocal microscopy of TAMRA-conjugated peptide; type: cell-based; conditions: 2.5 μM peptide, 30 minutes, FIG. 8
Procedure: E. coli NDm-1 was diluted when it reached OD600=0.5. The microorganism was treated with 2.5 μM of the peptide in a 37° C. incubator for 30 minutes. LK-L12P was used as a positive control.

[4] = system: E. coli ATCC 25922; conditions: Table 4
[5] = system: E. coli ATCC 25922; experiment: Antibiotic interaction assay (Wimley), 2/3 broth microdilution: MIC alone, MIC of combination, FICI; type: cell-based
Procedure: Synergy was evaluated by an antibiotic interaction assay (Wimley, 2015) Using the method of Wimley (BBA, 2015, v. 1848(1), pp. 8-15), synergy between the membrane-activating peptide and an antibiotic was measured by an FICI value (FIG. 17). […] Thus, to accurately examine synergy, a ⅔ dilution method which observes MIC at denser concentration intervals is advantageous over a ½ dilution method in statistical terms. […] In the same manner, the MIC of an antibiotic or repositioning drug (second line) is measured. In the third line, the two compounds are mixed after putting half amount each, and the MIC thereof is measured.
A broth microdilution technique (⅔ dilution) was used together with an MH broth. E. coli treated with an antibiotic and the peptide was incubated in a 37° C. incubator for 18 hours.
as §2

[6] = system: E. coli; experiment: NPN fluorescence, penetration into outer membrane; type: cell-based; conditions: FIG. 5
Procedure: Penetration into the microbial outer membrane was measured by the fluorescence intensity of NPN-treated E. coli (λex=355 nm, λem=405 nm). An E. coli suspension (8×10^7 cells/mL) was centrifuged at 13000 rpm at 25° C. for 10 minutes, and suspended in 5 mM HEPES buffer (pH 7.2). NPN was added to the E. coli suspension to a final NPN concentration of 5 μM. The fluorescence intensity of the E. coli suspension was measured using the FL-55 fluorometer. The peptide together with 5 μM NPN was added to the E. coli suspension.

[7] = system: E. coli; experiment: SYTOX Green membrane penetrability by FACS; type: cell-based; conditions: FIG. 6
Procedure: In the second experiment, whether the peptides would have the ability to disrupt both the outer wall and inner wall of bacteria was examined. To this end, the fluorescent dye Sytox Green capable of specifically staining DNA was used, and penetrability into the microbial membrane was evaluated from the average fluorescence intensity of E. coli treated with SYTOX Green. An E. coli suspension (2×10^8 cells/mL) was incubated with the three peptides in the presence of SYTOX Green (2.5 μM) for 10 minutes, respectively. Penetrability was quantified by a (fluorescence activated cell sorter (FACS). The average fluorescence intensity of 1×10^4 gate cells was measured. Melittin (control) is a pore-forming peptide that disrupts the microbial cell membrane.

[8] = labelled peptide + colistin + linezolid
[9] = three compounds: labelled peptide + colistin + linezolid

LKKLLKLLKKLPKL [LK-L12P]
MIC [μM] Against E. coli [1]: 2.5 µM | MIC [μM] Against S. aureus [2]: 10 µM | confocal image: membrane leakage / distribution of TAMRA-labeled peptide [3]: strongly induced leakage from the inner membrane and the outer membrane

LKKLLKLLKKPLKL [LK-L11P]
MIC [μM] Against E. coli [1]: 5 µM | MIC [μM] Against S. aureus [2]: >40 µM | Fractional Inhibitory Concentration Index (FICI), Colistin & 1 μM peptide [4]: 0.83, Synergism | MIC (μM) against E. coli ATCC 25922, Peptide alone ([4]; bacterial growth <10% of control): 3 µM

LKKLLKPPKKLLKL [LK-L7PL8P]
MIC [μM] Against E. coli [1]: 40 µM | MIC [μM] Against S. aureus [2]: >40 µM | MIC of combination (μM): antibiotic (colistin) ([5]; colistin concentration in combination with labelled peptide): 0.09 µM | FICI of peptide with colistin ([5]; labelled peptide + colistin): 0.3 and 0.34 | FICIPeptide ([5]; labelled peptide + colistin): 0.16 | FICIcolistin / FICIantibiotic ([5]; labelled peptide + colistin): 0.18 | FICI of peptide with colistin and linezolid [5, 8]: 0.27 | FICIPeptide [5, 8]: 0.07 | FICIcolistin [5, 8]: 0.09 | FICIlinezolid [5, 8]: 0.11 | FICI of peptide with linezolid ([5]; labelled peptide + linezolid): 0.53 | FICIPeptide ([5]; labelled peptide + linezolid): 0.26 | FICIlinezolid ([5]; labelled peptide + linezolid): 0.27 | FICI of peptide with linezolid ([5]; labelled peptide + linezolid, listed as LK-L7P/L8P): about 0.53 | MIC of combination (μM): linezolid ([5]; linezolid concentration in combination with labelled peptide): 22 µM | MIC of peptide ([5]; peptide alone): 53 µM | MIC of combination (μM): peptide ([5]; peptide concentration in combination with linezolid): 14 µM | MIC of combination (μM): colistin [5, 9]: 0.040 µM | MIC of combination (μM): linezolid [5, 9]: 5.9 µM | MIC of combination (μM): peptide [5, 9]: 4.7 µM

colistin
lowering of MIC in combination KL-L9P/colistin/linezolid versus alone [5]: 16 fold | MIC when the three compounds were used alone ([5]; Example 7): 0.8 µM | MIC (μM) against E. coli ATCC, combination of 3 compounds ([5]; KL-L9P + colistin + (S)-ibuprofen, concentration of labelled component): 0.08 µM | MIC (μM) against E. coli ATCC, combination of 3 compounds ([5]; KL-L9P + colistin + cloxacillin, concentration of labelled component): 0.08 µM | MIC (μM) against E. coli ATCC, combination of 3 compounds ([5]; KL-L9P + colistin + curcumin, concentration of labelled component): 0.08 µM | MIC (μM) against E. coli ATCC, combination of 3 compounds ([5]; KL-L9P + colistin + linezolid, concentration of labelled component): 0.06 µM | MIC (μM) against E. coli ATCC, combination of 3 compounds ([5]; KL-L9P + colistin + simvastatin, concentration of labelled component): 0.06 µM | MIC (μM) against E. coli ATCC, combination of two compounds ([5]; KL-L9P + colistin, concentration of labelled component): 0.17 µM | MIC ([5]; Tables 19-23, read-out: MIC (μM) against E. coli ATCC, 1 compound alone): 1 µM | MIC (μM) against E. coli ATCC, combination of two compounds ([5]; colistin + (S)-ibuprofen, concentration of labelled component): 0.55 µM | MIC (μM) against E. coli ATCC, combination of two compounds ([5]; colistin + cloxacillin, concentration of labelled component): 0.63 µM | MIC (μM) against E. coli ATCC, combination of two compounds ([5]; colistin + curcumin, concentration of labelled component): 0.30 µM | MIC (μM) against E. coli ATCC, combination of two compounds ([5]; colistin + linezolid, concentration of labelled component): 0.60 µM | MIC (μM) against E. coli ATCC, combination of two compounds ([5]; colistin + simvastatin, concentration of labelled component): 0.25 µM | MIC of combination (μM): KL-L9P ([5]; concentration of KL-L9P in combination with labelled drug): 2.40 µM | concentration killing E. coli in combination KL-L9P/colistin/linezolid ([5]; concentration of labelled component): 50 nM | MIC of combination (μM): antibiotic ([5]; concentration of labelled drug in combination with KL-L9P): 0.17 µM | MIC ([5]; drug alone, <20% growth of positive control, read-out: MIC of antibiotic): 1.63 µM | FICI of drug with KL-L9P ([5]; labelled drug + KL-L9P): 0.26 | FICIKL-L9P ([5]; labelled drug + KL-L9P): 0.16 | FICIantibiotic ([5]; labelled drug + KL-L9P): 0.10 | NPN fluorescence: touching/loosening the outer membrane [6]: had the property of touching the outer membrane and entering the outer membrane | SYTOX Green DNA staining: ability to degrade or penetrate the inner wall [7]: easily stained DNA | MIC (μM) against E. coli ATCC 25922, Colistin alone [4]: 1.25 µM
